Here are results for nine molecules from patent US8329646B2, “Methods for the treatment of muscle loss” (Nestec S.A., priority 2006, dated 2012).

The subject of assay [1] is murine C2C12 myotubes. In words: Protein synthesis in C2C12 myotubes exposed to PIF or Angiotensin II. The note with it: for reduction of protein synthesis when incubated alone: FIG. 6, FIG. 8, b61, compared to the control; for suppression of the inhibition of protein synthesis by PIF and Ang II: in the presence of PIF or Ang II. It is filed as cell-based. The text has this:
(§1) In order to determine the efficacy of branched chain amino acids (BCAAs) and other agents in reducing muscle catabolism, murine C2C12 myotubes were exposed to PIF or Angiotensin II in combination with amino acids (including BCAAs), insulin, insulin-like growth factor-1 (IGF-1), and a PKR inhibitor. PIF was extracted and purified from MAC16 tumors as described by Smith et al., Effect of a Cancer Cachectic Factor on Protein Synthesis/Degradation in Murine C2C12 Myoblasts: Modulation by Eicosapentaenoic Acid, Cancer Research, 59:5507-13 (1999), which is hereby incorporated by reference. Protein degradation was determined using the method described by Whitehouse et al., Increased Expression of the Ubiquitin-Proteasome Pathway in Murine Myotubes by Proteolysis-Inducing Factor (PIF) is Associated with Activation of the Transcription Factor NF-κB, British Journal of Cancer, 89:1116-22 (2003), which is also hereby incorporated by reference.
The measured proteolytic activity of PIF can be more specifically described as ubiquitin-like degradation activity.

The subject of assay [2] is murine C2C12 myotubes. In words: Protein degradation in C2C12 myotubes exposed to PIF or Angiotensin II. The assay is classed as cell-based. How it is done:
as §1, with “PIF” for “In order to determine the efficacy of branched chain amino acids (BCAAs) and other agents in reducing muscle catabolism, murine C2C12 myotubes were exposed to PIF or Angiotensin II in combination with amino acids (including BCAAs), insulin, insulin-like growth factor-1 (IGF-1), and a PKR inhibitor. PIF”

In a further assay the test system is eIF2-α. The assay can be described thus: Densitometric analysis of Western blots of phosphorylated eIF2-α in C2C12 myotubes. It is filed as cell-based, murine. The note with it: FIG. 2, FIG. 3, agent in combination with PIF, compared to PIF alone or to the control.
Text: as §1
The control sample was incubated only in phosphate buffered saline (PBS).

“Also recorded” adds a separate entry of the source.

For “Angiotensin II (DRVYIHPF; Angiotensin-2; UniProt P01019 25-32, looked up)”, the “reduction of protein synthesis when incubated alone” value is recorded as “about 40%” with murine C2C12 myotubes [1] and 40% with murine C2C12 myotubes [1] (listed as Ang II). The “increase of protein degradation when incubated alone” value in the assay with murine C2C12 myotubes [2] (FIG. 5, FIG. 7, compared to the control) is recorded as “about 51%”. Take `CC[C@H](C)[C@H](N)C(=O)O` [isoleucine]: the “eIF2-α phosphorylation in the presence of PIF” value (shortened to “eIF2-α phosphorylation”) with eIF2-α was “reduced such phosphorylation to about the level of the control or below”.

As to `CC(C)C[C@H](N)C(=O)O` [leucine], in the assay on eIF2-α, the “eIF2-α phosphorylation” value is reported as “reduced such phosphorylation to about the level of the control or below”. Same read-out and setting: the same measure for `CC(C)[C@H](N)C(=O)O` [valine]: “reduced such phosphorylation to about the level of the control or below”.

Turning to IGF-1: insulin-like growth factor-1, in the assay on murine C2C12 myotubes [1], the “suppression of the inhibition of protein synthesis by PIF and Ang II” value was “effective in suppressing the inhibition of protein synthesis”. The “eIF2-α phosphorylation” value in the assay on eIF2-α is “significantly reduced”; in the assay with eIF2-α (listed as IGF1), “completely attenuated”.

For the molecule `N=C(N)NCCC[C@H](N)C(=O)O` [arginine], the “eIF2-α phosphorylation” value with eIF2-α was “greater than that of the control”. For insulin: an anabolic hormone, the “suppression of the inhibition of protein synthesis by PIF and Ang II” value in the assay with murine C2C12 myotubes [1] is on record as “effective in suppressing the inhibition of protein synthesis”. Further, the “eIF2-α phosphorylation” value in the assay on eIF2-α is “significantly reduced; also recorded: completely attenuated”. Take `O=C1Nc2ccc3ncsc3c2/C1=C/c1cnc[nH]1` [PKR inhibitor]: the “protein synthesis levels, PKR inhibitor added to PIF” value with murine C2C12 myotubes [1] (FIG. 6, in combination with PIF) is reported as “reversed protein synthesis levels back to about those of the control”. In addition, in the assay with murine C2C12 myotubes [1] (FIG. 8, in combination with Angiotensin II), the “protein synthesis levels, PKR inhibitor added to Angiotensin II” value is given as “maintained protein synthesis levels at about that of the control”. Moreover, in the assay on murine C2C12 myotubes [2] (FIG. 5, in combination with PIF), the “protein degradation levels, PKR inhibitor added to PIF” value was “reversed protein degradation levels back to about those of the control”. In the assay with murine C2C12 myotubes [2] (FIG. 7, in combination with Angiotensin II), the “protein degradation levels, PKR inhibitor added to Angiotensin II” value is reported as “maintaining protein degradation levels at about that of the control”. With `CSCC[C@H](N)C(=O)O` [methionine], the “eIF2-α phosphorylation” value in the assay on eIF2-α was “greater than that of the control”.
